{"source": "patent US20170190671A1", "about": "“BIS(ARYL)CATECHOL DERIVATIVES AS HERBICIDES” (E I DU PONT DE NEMOURS AND COMPANY, priority 2014, published 2017)", "assay_type_in_all_cases": "in vivo", "key": {"[1]": {"system": "Russian thistle (Salsola kali)", "experiment": "Test D postemergence", "conditions": "scale 0 to 100", "text": "(§1) Seeds of plant species selected from bluegrass (annual bluegrass, Poa annua), blackgrass (Alopecurus myosuroides), canarygrass (Phalaris minor), chickweed (common chickweed, Stellaria media), cutleaf geranium (Geranium dissectum), galium (catchweed bedstraw, Galium aparine), downy bromegrass (Bromus tectorum), field poppy (Papaver rhoeas), field violet (Viola arvensis), green foxtail (Setaria viridis), deadnettle (henbit deadnettle, Lamium amplexicaule), Italian ryegrass (Lolium multiflorum), kochia (Kochia scoparia), lambsquarters (Chenopodium album), oilseed rape (Brassica napus), pigweed (Amaranthus retroflexus), chamomile (scentless chamomile, Matricaria inodora), Russian thistle (Salsola kali), speedwell (bird's-eye speedwell, Veronica persica), spring barley (Hordeum vulgare), spring wheat (Triticum aestivum), wild buckwheat (Polygonum convolvulus), wild mustard (Sinapis arvensis), wild oat (Avenafatua), wild radish (Raphanus raphanistrum), windgrass (Apera spica-venti), winter barley (Hordeum vulgare), and winter wheat (Triticum aestivum) were planted into a silt loam soil and treated preemergence with test chemicals formulated in a non-phytotoxic solvent mixture which included a surfactant.\n(§2) At the same time, these species were planted in pots containing Redi-Earth® planting medium (Scotts Company, 14111 Scottslawn Road, Marysville, Ohio 43041) comprising spaghnum peat moss, vermiculite, wetting agent and starter nutrients and treated with postemergence applications of the test chemicals formulated in the same manner. Plants ranged in height from 2 to 18 cm (1- to 4-leaf stage). Treated plants and controls were maintained in a controlled growth environment for 14 to 21 days after which time all species were compared to controls and visually evaluated. Plant response ratings, summarized in Table D, are based on a scale of 0 to 100 where 0 is no effect and 100 is complete control. A dash (-) response means no test result."}, "[2]": {"system": "pigweed (Amaranthus retroflexus)", "experiment": "Test D postemergence", "conditions": "scale 0 to 100", "text": "as §1, §2"}, "[3]": {"system": "spring barley (Hordeum vulgare)", "experiment": "Test D postemergence", "conditions": "scale 0 to 100", "text": "as §1, §2"}, "[4]": {"system": "windgrass (Apera spica-venti)", "experiment": "Test D postemergence", "conditions": "scale 0 to 100", "text": "as §1, §2"}, "[5]": {"system": "horseweed (Conyza canadensis)", "experiment": "Test E preemergence", "conditions": "31 g ai/ha, scale 0 to 100", "method_in_brief": "(§3)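 Test chemicals, formulated in a non-phytotoxic solvent with surfactant, are applied to silt loam soil after sowing or sprayed over young plants (1–4 leaves) in potting medium. Plants are then kept in a greenhouse for 14 to 21 days and scored 0–100 for control.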"}, "[6]": {"system": "johnsongrass (Sorghum halepense)", "experiment": "Test E preemergence", "conditions": "scale 0 to 100", "method_in_brief": "as §3"}, "[7]": {"system": "wild poinsettia (Euphorbia heterophylla)", "experiment": "Test E preemergence", "conditions": "scale 0 to 100", "method_in_brief": "as §3"}, "[8]": {"system": "Italian ryegrass (Lolium multiflorum)", "experiment": "Test E postemergence", "conditions": "scale 0 to 100", "method_in_brief": "as §3"}, "[9]": {"system": "corn (Zea mays)", "experiment": "Test E postemergence", "conditions": "scale 0 to 100", "method_in_brief": "as §3"}, "[10]": {"system": "fall panicum (Panicum dichotomiflorum)", "experiment": "Test E postemergence", "conditions": "scale 0 to 100", "method_in_brief": "as §3"}, "[11]": {"system": "field bindweed (Convolvulus arvensis)", "experiment": "Test E postemergence", "conditions": "scale 0 to 100", "method_in_brief": "as §3"}, "[12]": {"system": "hairy beggarticks (Bidens pilosa)", "experiment": "Test E postemergence", "conditions": "scale 0 to 100", "method_in_brief": "as §3"}, "[13]": {"system": "palmer pigweed (Amaranthus palmeri)", "experiment": "Test E postemergence", "conditions": "scale 0 to 100", "method_in_brief": "as §3"}, "[14]": {"system": "ragweed (common ragweed, Ambrosia elatior)", "experiment": "Test E postemergence", "conditions": "scale 0 to 100", "method_in_brief": "as §3"}, "[15]": {"system": "waterhemp_RES1 (ALS & Triazine resistant common waterhemp, Amaranthus rudis)", "experiment": "Test E postemergence", "conditions": "scale 0 to 100", "method_in_brief": "as §3"}}, "data": [{"smiles": "Fc1cccc(Oc2ncc(C(F)(F)F)cn2)c1Oc1ncc(Cl)cn1", "note": "[Compound 42, 5-chloro-2-[2-fluoro-6-[[5-(trifluoromethyl)-2-pyrimidinyl]oxy]phenoxy]pyrimidine]", "values": [{"measurement": "Plant response rating, Russian Thistle", "setting": "[1]; 16 g ai/ha", "result": 10}, {"measurement": "Plant response rating, Russian Thistle", "setting": "[1]; 31 g ai/ha", "result": 10}, {"measurement": "Plant response rating, Russian Thistle", "setting": "[1]; 62 g ai/ha", "result": 25}, {"measurement": "Plant response rating, Russian Thistle", "setting": "[1]; 125 g ai/ha", "result": 70}, {"measurement": "Plant response rating, Pigweed", "setting": "[2]; 16 g ai/ha", "result": 100}, {"measurement": "Plant response rating, Pigweed", "setting": "[2]; 31 g ai/ha", "result": 100}, {"measurement": "Plant response rating, Pigweed", "setting": "[2]; 62 g ai/ha", "result": 100}, {"measurement": "Plant response rating, Pigweed", "setting": "[2]; 125 g ai/ha", "result": 100}, {"measurement": "Plant response rating, Barley, Spring", "setting": "[3]; 16 g ai/ha", "result": 10}, {"measurement": "Plant response rating, Barley, Spring", "setting": "[3]; 31 g ai/ha", "result": 15}, {"measurement": "Plant response rating, Barley, Spring", "setting": "[3]; 62 g ai/ha", "result": 20}, {"measurement": "Plant response rating, Barley, Spring", "setting": "[3]; 125 g ai/ha", "result": 30}, {"measurement": "Plant response rating, Windgrass", "setting": "[4]; 16 g ai/ha", "result": 25}, {"measurement": "Plant response rating, Windgrass", "setting": "[4]; 31 g ai/ha", "result": 40}, {"measurement": "Plant response rating, Windgrass", "setting": "[4]; 62 g ai/ha", "result": 50}, {"measurement": "Plant response rating, Windgrass", "setting": "[4]; 125 g ai/ha", "result": 60}, {"measurement": "Plant response rating, Horseweed", "setting": "[5]", "result": 0}, {"measurement": "Plant response rating, Johnsongrass", "setting": "[6]; 16 g ai/ha", "result": 80}, {"measurement": "Plant response rating, Johnsongrass", "setting": "[6]; 31 g ai/ha", "result": 80}, {"measurement": "Plant response rating, Johnsongrass", "setting": "[6]; 62 g ai/ha", "result": 95}, {"measurement": "Plant response rating, Johnsongrass", "setting": "[6]; 125 g ai/ha", "result": 100}, {"measurement": "Plant response rating, Poinsettia, Wild", "setting": "[7]; 16 g ai/ha", "result": 20}, {"measurement": "Plant response rating, Poinsettia, Wild", "setting": "[7]; 31 g ai/ha", "result": 20}, {"measurement": "Plant response rating, Poinsettia, Wild", "setting": "[7]; 62 g ai/ha", "result": 80}, {"measurement": "Plant response rating, Poinsettia, Wild", "setting": "[7]; 125 g ai/ha", "result": 100}, {"measurement": "Plant response rating, Ryegrass, Italian", "setting": "[8]; 16 g ai/ha", "result": 0}, {"measurement": "Plant response rating, Ryegrass, Italian", "setting": "[8]; 31 g ai/ha", "result": 10}, {"measurement": "Plant response rating, Ryegrass, Italian", "setting": "[8]; 62 g ai/ha", "result": 20}, {"measurement": "Plant response rating, Ryegrass, Italian", "setting": "[8]; 125 g ai/ha", "result": 40}, {"measurement": "Plant response rating, Corn", "setting": "[9]; 16 g ai/ha", "result": 5}, {"measurement": "Plant response rating, Corn", "setting": "[9]; 31 g ai/ha", "result": 10}, {"measurement": "Plant response rating, Corn", "setting": "[9]; 62 g ai/ha", "result": 10}, {"measurement": "Plant response rating, Corn", "setting": "[9]; 125 g ai/ha", "result": 15}, {"measurement": "Plant response rating, Panicum, Fall", "setting": "[10]; 16 g ai/ha", "result": 10}, {"measurement": "Plant response rating, Panicum, Fall", "setting": "[10]; 31 g ai/ha", "result": 15}, {"measurement": "Plant response rating, Panicum, Fall", "setting": "[10]; 62 g ai/ha", "result": 20}, {"measurement": "Plant response rating, Panicum, Fall", "setting": "[10]; 125 g ai/ha", "result": 30}, {"measurement": "Plant response rating, Field Bindweed", "setting": "[11]; 16 g ai/ha", "result": 40}, {"measurement": "Plant response rating, Field Bindweed", "setting": "[11]; 31 g ai/ha", "result": 50}, {"measurement": "Plant response rating, Field Bindweed", "setting": "[11]; 62 g ai/ha", "result": 60}, {"measurement": "Plant response rating, Field Bindweed", "setting": "[11]; 125 g ai/ha", "result": 70}, {"measurement": "Plant response rating, Beggarticks", "setting": "[12]; 16 g ai/ha", "result": 50}, {"measurement": "Plant response rating, Beggarticks", "setting": "[12]; 31 g ai/ha", "result": 60}, {"measurement": "Plant response rating, Beggarticks", "setting": "[12]; 62 g ai/ha", "result": 60}, {"measurement": "Plant response rating, Beggarticks", "setting": "[12]; 125 g ai/ha", "result": 70}, {"measurement": "Plant response rating, Pigweed, Palmer", "setting": "[13]; 16 g ai/ha", "result": 80}, {"measurement": "Plant response rating, Pigweed, Palmer", "setting": "[13]; 31 g ai/ha", "result": 85}, {"measurement": "Plant response rating, Pigweed, Palmer", "setting": "[13]; 62 g ai/ha", "result": 95}, {"measurement": "Plant response rating, Pigweed, Palmer", "setting": "[13]; 125 g ai/ha", "result": 100}, {"measurement": "Plant response rating, Ragweed", "setting": "[14]; 16 g ai/ha", "result": 10}, {"measurement": "Plant response rating, Ragweed", "setting": "[14]; 31 g ai/ha", "result": 25}, {"measurement": "Plant response rating, Ragweed", "setting": "[14]; 62 g ai/ha", "result": 50}, {"measurement": "Plant response rating, Ragweed", "setting": "[14]; 125 g ai/ha", "result": 60}, {"measurement": "Plant response rating, Waterhemp_RES1", "setting": "[15]; 16 g ai/ha", "result": 60}, {"measurement": "Plant response rating, Waterhemp_RES1", "setting": "[15]; 31 g ai/ha", "result": 75}, {"measurement": "Plant response rating, Waterhemp_RES1", "setting": "[15]; 62 g ai/ha", "result": 75}, {"measurement": "Plant response rating, Waterhemp_RES1", "setting": "[15]; 125 g ai/ha", "result": 90}]}]}
